Laboratory results reported in US8796460B2, “Compounds for inhibiting KSP kinesin activity” (Mercky Sharp & Dohme Corp., priority 2007, dated 2014).

tested on: HCT116 colon cancer cells; assay: KSP Cellular Assay (percent of cells staining positive for Phos-Histone H3 / Phos-MPM2); format: cell-based; settings: Homo sapiens, HCT-116, 16 h, Table 101; HCT116 cells, 16 hours with drug; read-out: ED50 (nM) Range
Experimental: HCT116 colon cancer cells were grown in DMEM:F12 media with 10% heat inactivated FBS at 37 degrees with 5% CO2. Cells were plated at 7,500 cells per well in PDL coated 384-well tissue culture plates. 6 hours later media was removed and new media containing drug was added. Cells were incubated with drug for 16 hours. All further steps were performed at room temperature in the dark. Cells were fixed with 25 ul/well Prefer fixation solution plus 250 nM Hoechst dye and incubated for 30 minutes. The fixation solution was removed and cells were washed with PBS. Cells were then permeabilized with 25 ul/well 0.2% Triton-X in PBS and incubated for 10 minutes. Cells were washed with PBS and then incubated with 25 ul/well PBS containing 3% FBS for 30 minutes. Cells were then stained overnight at 4 degrees with 25 ul/well antibody solution in PBS plus 3% FBS. Antibodies used were Phos-Histone H3 (ser10)-Alexa Flur 488 Conjugate and Phos-MPM2 Texas Red Conjugate. Cells were washed with PBS and then immunofluorescence images captured with HT Pathway microscope. The percent of cells staining positive was calculated and EC50 values for the compounds of the invention that were tested were determined using Excel XLfit.
EC50 Determinations: Dose-response curves were plotted from inhibition data generated each in duplicate, from 8 point serial dilutions of inhibitory compounds. Concentration of compound was plotted against enzyme activity (OD reading). To generate EC50 values, the dose-response curves were then fitted to a standard sigmoidal curve and EC50 values were derived by nonlinear regression analysis.

| Compound | EC50 [nM] |
| --- | --- |
| CC(=O)N1N=C(c2cc(F)ccc2F)SC12CC(c1ccccc1)Oc1ccccc12 (centres unmarked) [compound 117] | > 1000 |
| CCOC(=O)N1CCC2(SC(c3cc(F)ccc3F)=NN2C(C)=O)c2ccccc21 (centres unmarked) [compound 113] | > 1000 |
| CC(=O)N1N=C(c2cc(F)ccc2F)SC12COc1ccccc12 (centres unmarked) [compound 106] | ≤ 500 |
| CC(=O)N1N=C(c2cc(F)ccc2F)SC12CCCc1ccsc12 (centres unmarked) [compound 107] | > 500 |
| CC(=O)N1N=C(c2cc(F)ccc2F)SC12CCCc1sccc12 (centres unmarked) [compound 103] | > 1000 |
| CC(=O)N1N=C(c2cc(F)ccc2F)SC12CC1(CCNCC1)Oc1ccccc12 (centres unmarked) [compound 125] | > 1000 |
| CC(=O)N1N=C(c2cc(F)ccc2F)SC12CCCc1ccccc12 (centres unmarked) [compound 101] | > 1000 |
| CC(=O)N1CCC2(CC1)CC1(SC(c3cc(F)ccc3F)=NN1C(C)=O)c1ccccc1O2 (centres unmarked) [compound 126] | > 1000 |

same assay, conditions: Homo sapiens, HCT-116, 16 h, Table 401; HCT116 cells, 16 hours with drug; read-out: ED50 (nM) Range

| Compound | EC50 [nM] |
| --- | --- |
| O=C(CC1CNC1)N1N=C(c2cc(F)ccc2F)SC12CCOc1ccccc12 (centres unmarked) [compound 491] | 500 to 1000 |
| NC(=O)CCC(=O)N1N=C(c2cc(F)ccc2F)SC12CCOc1ccccc12 (centres unmarked) [compound 488] | > 500 |
| O=C([C@@H]1CCCCN1)N1N=C(c2cc(F)ccc2F)SC12CCCc1ccccc12 (some centres unmarked) [compound 414] | > 1000 |
| N[C@H]1C[C@@H](C(=O)N2N=C(c3cc(F)ccc3F)SC23CCc2ccccc23)C1 (some centres unmarked) [compound 501] | ≤ 500 |
| CC(C)[C@H](O)C(=O)N1N=C(c2cc(F)ccc2F)SC12CCCc1ccccc12 (some centres unmarked) [compound 402] | > 1000 |
| N[C@H]1C[C@H](C(=O)N2N=C(c3cc(F)ccc3F)SC23CCc2ccccc23)C1 (some centres unmarked) [compound 502] | ≤ 500 |
| N[C@@H]1CC[C@H](C(=O)N2N=C(c3cc(F)ccc3F)SC23CCOc2ccccc23)C1 (some centres unmarked) [compound 477] | > 500 |
| O=C(c1ccccn1)N1N=C(c2cc(F)ccc2F)SC12CCOc1ccccc12 (centres unmarked) [compound 432] | > 1000 |
| N[C@H](C(=O)N1N=C(c2cc(F)ccc2F)SC12CCc1ccccc12)C1CC1 (some centres unmarked) [compound 420] | > 1000 |
| O=C([C@@H]1CCCCN1)N1N=C(c2cc(F)ccc2F)SC12CCCc1ccsc12 (some centres unmarked) [compound 425] | > 1000 |
| NCCC(=O)N1N=C(c2cc(F)ccc2F)SC12CCOc1ccccc12 (centres unmarked) [compound 433] | 500 to 1000 |
| CNCCCC(=O)N1N=C(c2cc(F)ccc2F)SC12CCc1ccccc12 (centres unmarked) [compound 453] | > 500 |
| COCC(=O)N1N=C(c2cc(F)ccc2F)SC12CCOc1ccccc12 (centres unmarked) [compound 466] | > 1000 |

same assay, conditions: Homo sapiens, HCT-116, 16 h, Table 801; HCT116 cells, 16 hours with drug; read-out: EC50 (nM) Range

| Compound | EC50 [nM] |
| --- | --- |
| CC(=O)N1N=C(c2cc(F)ccc2F)S[C@@]12c1cc(F)ccc1OC[C@@H]2CCN [compound 804] | ≤ 500 |
| CC(=O)N1N=C(c2cc(F)ccc2F)S[C@]12c1ccccc1OC[C@H]2CCN [compound 817] | ≤ 500 |

same assay, conditions: Homo sapiens, HCT-116, 16 h, Table 1201 (Example 1201); HCT116 cells, 16 hours with drug; read-out: EC50 (nM) Range

| Compound | EC50 [nM] |
| --- | --- |
| CCNCC[C@@H]1COc2ccccc2[C@@]12SC(c1cc(F)ccc1F)=NN2C(C)=O [compound 1202] | ≤ 500 |

same assay, conditions: Homo sapiens, HCT-116, 16 h, table of Example 1004; HCT116 cells, 16 hours with drug; read-out: EC50 (nM) Range

| Compound | EC50 [nM] |
| --- | --- |
| CC(=O)N1N=C(c2cc(F)ccc2F)S[C@@]12c1ccccc1OC[C@H]2CCCN [compound 1004] | ≤ 500 |

same assay, conditions: Homo sapiens, HCT-116, 16 h, table of Example 1801 (headed Table 1201); HCT116 cells, 16 hours with drug; read-out: EC50 (nM) Range

| Compound | EC50 [nM] |
| --- | --- |
| CC(=O)N1N=C(c2cc(C(F)(F)F)ccc2F)S[C@@]12c1ccccc1OC[C@H]2CCN [compound 1806] | ≤ 500 |
| CC(=O)N1N=C(c2ccc(F)cc2F)S[C@@]12c1ccccc1OC[C@H]2CCN (single isomer, unassigned) [compound 1801] | ≤ 500 |

same assay, conditions: Homo sapiens, HCT-116, 16 h, table of Example 1901; HCT116 cells, 16 hours with drug; read-out: EC50 (nM) Range

| Compound | EC50 [nM] |
| --- | --- |
| COCCOCC(=O)N1N=C(c2cc(F)ccc2F)S[C@@]12c1cc(F)cc(F)c1OC[C@H]2CCN [compound 1911] | ≤ 500 |

same assay, conditions: Homo sapiens, HCT-116, 16 h, table of Example 2101; HCT116 cells, 16 hours with drug; read-out: EC50 (nM) Range

| Compound | EC50 [nM] |
| --- | --- |
| CCOC(=O)N1N=C(c2cc(F)ccc2F)S[C@@]12c1cc(F)ccc1OC[C@H]2CCN (single isomer, unassigned) [compound 2101] | ≤ 500 |
| CCOC(=O)N1N=C(c2cc(F)ccc2F)S[C@]12c1cc(F)ccc1OC[C@@H]2CCN [compound 2102] | > 1000 |

same assay, conditions: Homo sapiens, HCT-116, 16 h, table of Example 2401; HCT116 cells, 16 hours with drug; read-out: EC50 (nM) Range

| Compound | EC50 [nM] |
| --- | --- |
| CC(=O)N1N=C(c2cc(F)ccc2F)S[C@]12CCNc1ccccc12 [compound 2402] | > 1000 |

same assay, conditions: Homo sapiens, HCT-116, 16 h, table of Example 2901; HCT116 cells, 16 hours with drug; read-out: EC50 (nM) Range

| Compound | EC50 [nM] |
| --- | --- |
| CC(=O)N1N=C(c2cc(F)ccc2F)S[C@@]12c1cc(F)ccc1NC[C@H]2CCN [compound 2902] | ≤ 500 |
